From PubChem BioAssay (NCI)
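Each compound was tested at five concentrations against cells in 96-well plates for 48 hours. Abbreviation: GI50, concentration required for 50% inhibition of growth. TGI marks complete inhibition of growth.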

Assays:
Assay in all cases: DTP human tumour cell line panel, 48 h
OVCAR-5 ovarian = system: OVCAR-5 ovarian
NCI-H460 lung = system: NCI-H460 lung
SK-OV-3 ovarian = system: SK-OV-3 ovarian
OVCAR-8 ovarian = system: OVCAR-8 ovarian
UO-31 renal = system: UO-31 renal
HT29 colon = system: HT29 colon
786-0 renal = system: 786-0 renal
UACC-62 melanoma = system: UACC-62 melanoma
HCT-116 colon = system: HCT-116 colon
NCI-H226 lung = system: NCI-H226 lung

Structure (SMILES) | GI50 (OVCAR-5 ovarian) [µM] | TGI (OVCAR-5 ovarian) [µM] | GI50 (NCI-H460 lung) [µM] | TGI (NCI-H460 lung) [µM] | GI50 (SK-OV-3 ovarian) [µM] | TGI (SK-OV-3 ovarian) [µM] | GI50 (OVCAR-8 ovarian) [µM] | TGI (OVCAR-8 ovarian) [µM] | GI50 (UO-31 renal) [µM] | TGI (UO-31 renal) [µM] | GI50 (HT29 colon) [µM] | TGI (HT29 colon) [µM] | GI50 (786-0 renal) [µM] | TGI (786-0 renal) [µM] | GI50 (UACC-62 melanoma) [µM] | TGI (UACC-62 melanoma) [µM] | GI50 (HCT-116 colon) [µM] | TGI (HCT-116 colon) [µM] | GI50 (NCI-H226 lung) [µM] | TGI (NCI-H226 lung) [µM]
Nc1c(C(=O)Nc2cccc(Br)c2)sc2nc3c(cc12)C(=O)CCC3 | 6.82 | > 100 | 0.373 | > 100 | 0.501 | > 100 | 33.7 | > 100 | 3.07 | > 100 | 0.37 | > 100 | 0.86 | > 100 | 0.516 | > 100 | 0.534 | > 100 | 16.8 | > 100
CCC1C2C=CC(CC2)N1S(=O)(=O)c1ccc(C)cc1 (stereo not given) | – | 79 | – | 52.1 | – | 89.6 | – | – | – | 39.2 | – | 42.1 | – | > 100 | – | 49.7 | – | > 100 | – | 33.9
CCOC(=O)C1(c2ccccc2)CCC(=O)CC1 | – | > 100 | – | > 100 | – | > 100 | – | > 100 | – | > 100 | – | > 100 | – | > 100 | – | > 100 | – | > 100 | – | > 100
COc1ccc(/C(=N\NC(=O)C(N)=O)C(c2ccc(OC)cc2)C2(O)C(=O)Nc3c(Cl)cccc32)cc1 (stereo not given) | – | > 100 | – | > 100 | – | – | – | > 100 | – | > 100 | – | > 100 | – | > 100 | – | > 100 | – | > 100 | – | > 100
O=C(O)[C@H](NS(=O)(=O)c1ccc2ccccc2c1)c1ccccc1 | – | > 100 | – | > 100 | – | > 100 | – | – | – | > 100 | – | > 100 | – | > 100 | – | > 100 | – | – | – | –
COC12C=C/C(=C(/C(=O)OCc3ccncc3)C(=O)CCCCCCCCC3(OC)C=C/C(=C(/C(=O)OCc4ccncc4)C(=O)CCCCCCCC1)O3)O2 | 0.87 | 4.6 | 0.915 | 1.98 | 2.03 | 9.02 | 0.219 | 50 | 0.641 | 1.4 | 0.721 | 4.79 | 0.354 | 1.19 | – | – | 0.111 | 0.239 | – | –
Cc1ccc(Cn2c(C)nc3c2C(=O)c2ccccc2C3=O)cc1 | – | – | – | 3.13 | – | 45.6 | – | 28 | – | > 100 | – | > 100 | – | 19.7 | – | 16.1 | – | 16.3 | – | 33.7
COC1[C@@H](OC(C)=O)[C@@H](NC(=O)C(Cl)(Cl)Cl)C(I)[C@@H](N2C(=O)c3ccccc3C2=O)[C@H]1OC (stereo not given in full) | – | > 100 | – | > 100 | – | – | – | > 100 | – | – | – | > 100 | – | > 100 | – | > 100 | – | > 100 | – | > 100
CCOC(=O)C(C)(C)Oc1ccc2c(C)c(-c3ccc(Cl)cc3)c(=O)oc2c1 | – | – | – | > 100 | – | – | – | > 100 | – | > 100 | – | 62.7 | – | > 100 | – | > 100 | – | > 100 | – | 80.6
O=C(N/N=C1/C(=O)N(c2ccc(Cl)cc2Cl)C(=O)C(=O)C1c1nc2ccccc2o1)c1ccccc1O (stereo not given) | – | > 100 | – | > 100 | – | > 100 | – | > 100 | – | – | – | > 100 | – | > 100 | – | 48.6 | – | > 100 | – | > 100
O=C(Nc1cc(Cl)ccc1Cl)c1cc2cccc(Cl)c2oc1=O | – | – | – | > 100 | – | > 100 | – | > 100 | – | – | – | > 100 | – | > 100 | – | > 100 | – | > 100 | – | –
C1CSCCSCCS1 | – | > 100 | – | > 100 | – | > 100 | – | > 100 | – | > 100 | – | > 100 | – | > 100 | – | > 100 | – | > 100 | – | –
COC1C(O)=C2C(=O)O/C(C)=C/C=C/C=C/C=C\CC(c3ccccc3)NC(=O)\C=C/C=C\C=C\C=C\[C@@]2(C)[C@@H]1O (stereo not given in full) | – | 0.413 | – | – | – | 0.188 | – | 0.243 | – | 0.0607 | – | 0.0531 | – | 0.148 | – | 0.551 | – | 0.0198 | – | 0.273
COc1ccc2oc(-c3cccnc3)cc(=O)c2c1 | – | – | – | > 100 | – | – | – | – | – | 69.2 | – | > 100 | – | > 100 | – | > 100 | – | > 100 | – | > 100
c1ccc(SC2CCSc3ccccc3C2Sc2ccccc2)cc1 (stereo not given) | – | – | – | > 100 | – | – | – | > 100 | – | > 100 | – | > 100 | – | > 100 | – | – | – | > 100 | – | > 100
O=c1n(-c2ccccc2)c(=O)n2n1C1C=CC2C2C(C1)C2(Cl)Cl (stereo not given) | – | > 100 | – | > 100 | – | > 100 | – | > 100 | – | > 100 | – | – | – | > 100 | – | > 100 | – | > 100 | – | > 100
CCOC(=O)NC(=O)c1cn(CCOC(=O)NCCCCCCNC(=O)OCCn2cc(C(=O)NC(=O)OCC)c(=O)[nH]c2=O)c(=O)[nH]c1=O | – | – | – | > 100 | – | > 100 | – | > 100 | – | > 100 | – | > 100 | – | > 100 | – | > 100 | – | > 100 | – | > 100
COc1ccc2[nH]cc(-c3nc(-c4c[nH]c5ncccc45)cs3)c2c1 | > 100 | > 100 | 3.26 | > 100 | 4.41 | > 100 | 4.7 | > 100 | 1.41 | > 100 | – | – | 1.97 | > 100 | 3.66 | > 100 | 2.9 | 21 | 3.93 | > 100
Cc1ccc(-c2nc3ccc([N+](=O)[O-])cc3[nH]2)cc1 | – | – | – | > 100 | – | > 100 | – | > 100 | – | > 100 | – | > 100 | – | > 100 | – | > 100 | – | > 100 | – | > 100
N#Cc1c(-c2ccc(F)cc2)c(-c2ccc(F)cc2)nn(CCO)c1=O | – | > 100 | – | > 25.1 | – | > 49.6 | – | – | – | > 100 | – | > 22.9 | – | > 100 | – | > 77 | – | 7.04 | – | > 4.64
CCOc1ccc(N2C(=O)/C(=C/c3ccc(N(CCC#N)CCC#N)cc3)N=C2c2cc([N+](=O)[O-])ccc2Cl)cc1 | – | > 100 | – | 55.7 | – | > 100 | – | > 100 | – | > 100 | – | – | – | 26.4 | – | 83.3 | – | 39.5 | – | > 100
O=c1c2ccccc2sc2cccc(NCCCN3CCN(CCCNc4cccc5sc6ccccc6c(=O)c45)CC3)c12 | – | > 100 | – | > 100 | – | > 100 | – | – | – | > 100 | – | > 100 | – | > 100 | – | > 100 | – | > 100 | – | > 100
O=C(CSc1nnc(-c2ccc(N=Cc3ccc(Cl)cc3)cc2)o1)Nc1ccc(Cl)cc1 | – | – | – | > 100 | – | > 100 | – | > 100 | – | > 100 | – | > 100 | – | > 100 | – | > 100 | – | > 100 | – | > 100
